What follows are compounds tested on NLRP3 inflammasome pathway (assay: NLRP3 inflammasome pathway activation assay, MSU stimulation, IL-1β HTRF). Conditions: Homo sapiens, 3 h, Table 7; PMA-differentiated, LPS-primed cells; MSU 200 μg/mL for 3 h; IL-1β release; read-out: IC50 Human monocyte-like cells MSU.
Type: cell-based
Procedure: The following assays were used to determine the inhibitory activity of test compounds on the NLRP3 inflammasome pathway using common stimuli Nigericin (Invivogen) or monosodium urate crystals (MSU) (Invivogen).
Human monocyte-like cells were cultured in RPMI-1640 Glutamax medium supplemented with 10% heat inactivated FBS (Fetal Bovine Serum) and 50 U/mL penicillin-streptomycin (Life Technologies).
Human monocyte-like cells were seeded at 25000 per well in a 384-well plate and were differentiated overnight into macrophages with 10 ng/mL PMA (Phorbol Myristate Acetate). The following day, medium containing 10 ng/mL LPS (Lipopolysaccharide) was added. After 3 hours of LPS priming, concentrations of test compound in the range from […] were added 30 min prior to NLRP3 inflammasome pathway stimulation with Nigericin 3.75 μM or MSU 200 μg/mL for 3 h.
For IL-1p quantification, supernatants were analyzed using HTRF kit according to the manufacturer's instructions (Cisbio 62HIL1BPEH). Briefly, in a 384-well ProxiPlate™ microplate, 8 μl of sample was mixed, with 5 μl of Anti-IL1β Cryptate antibody (40×) and Anti-IL1β XL antibody (40×). Then, incubated overnight at RT. Reading was done using an EnVision Reader (PerkinElmer).
IC50 (concentration corresponding to 50% inhibition) were determined using GraphPad Prism 9.

Row | SMILES | IC50
1 | Cc1cc(Cl)cc(O)c1-c1nc2nc(NC3CCC(F)(F)C3)ccc2n1C (racemic) [Example 11, 5-chloro-2-(5-((3,3-difluorocyclopentyl)amino)-1-methyl-1H-imidazo[4,5-b]pyridin-2-yl)-3-methylphenol] | 100 to 1000 nM
2 | Cc1cc(C(F)(F)F)cc(O)c1-c1nc2nc(OC3CCN(C)C3)ncc2n1C (racemic) [Example 55, 3-methyl-2-(7-methyl-2-((1-methylpyrrolidin-3-yl)oxy)-7H-purin-8-yl)-5-(trifluoromethyl)phenol] | 100 to 1000 nM
3 | Cc1cc(Cl)cc(O)c1-c1nc2nc(N3CCC4CCN(C)CC43)cnc2n1C (racemic) [Example 76, 5-chloro-3-methyl-2-[1-methyl-5-(6-methyl-3,3a,4,5,7,7a-hexahydro-2H-pyrrolo[2,3-c]pyridin-1-yl)imidazo[4,5-b]pyrazin-2-yl]phenol] | < 100 nM
4 | Cn1c(-c2ccc(C(F)(F)F)cc2O)nc2nc(N[C@@H]3CCC[C@@H](O)C3)ccc21 (relative stereo) [Example 22A, 2-(5-((3-hydroxycyclohexyl)amino)-1-methyl-1H-imidazo[4,5-b]pyridin-2-yl)-5-(trifluoromethyl)phenol] | 100 to 1000 nM
5 | Cc1cc(Cl)cc(O)c1-c1nc2nc(N3CC[C@@H]4CCN(C)C[C@@H]43)cnc2n1C (relative stereo) [Example 77A, 5-chloro-3-methyl-2-[1-methyl-5-[rel-(3aS,7aR)-6-methyl-3,3a,4,5,7,7a-hexahydro-2H-pyrrolo[2,3-c]pyridin-1-yl]imidazo[4,5-b]pyrazin-2-yl]phenol] | < 100 nM
6 | CCn1c(-c2c(C)cc(C(F)(F)F)cc2O)nc2nc(NC3CCN(C)C3)ccc21 (single isomer, unassigned) [Example 8, 2-(1-ethyl-5-((1-methylpyrrolidin-3-yl)amino)-1H-imidazo[4,5-b]pyridin-2-yl)-3-methyl-5-(trifluoromethyl)phenol] | < 100 nM
7 | CC(C)n1c(-c2ccc(C(F)(F)F)cc2O)nc2nc(NC3CCN(C)C3)ccc21 (single isomer, unassigned) [Example 10A, 2-(1-isopropyl-5-((1-methylpyrrolidin-3-yl)amino)-1H-imidazo[4,5-b]pyridin-2-yl)-5-(trifluoromethyl)phenol] | 100 to 1000 nM
8 | Cc1cc(C(F)(F)F)cc(O)c1-c1nc2nc(NC3CCN(C)C3)ccc2n1C (single isomer, unassigned) [Example 18A, 3-methyl-2-(1-methyl-5-((1-methylpyrrolidin-3-yl)amino)-1H-imidazo[4,5-b]pyridin-2-yl)-5-(trifluoromethyl)phenol] | < 100 nM
9 | CN1CC[C@@H](Nc2ccc3c(n2)nc(-c2ccc(C(F)(F)F)cc2O)n3C)C1 (single isomer, unassigned) [Example 19, 2-(1-methyl-5-((1-methylpyrrolidin-3-yl)amino)-1H-imidazo[4,5-b]pyridin-2-yl)-5-(trifluoromethyl)phenol] | < 100 nM
10 | Cc1cc(C(F)(F)F)cc(O)c1-c1nc2nc(N[C@@H]3CCC[C@@H](O)C3)ccc2n1C (single isomer, unassigned) [Example 21, 2-(5-((3-hydroxycyclohexyl)amino)-1-methyl-1H-imidazo[4,5-b]pyridin-2-yl)-3-methyl-5-(trifluoromethyl)phenol] | 100 to 1000 nM
11 | Cn1c(-c2ccc(C(F)(F)F)cc2O)nc2nc(O[C@H]3CC[C@H](O)C3)ccc21 (single isomer, unassigned) [Example 37A, trans-2-(5-((3-hydroxycyclopentyl)oxy)-1-methyl-1H-imidazo[4,5-b]pyridin-2-yl)-5-(trifluoromethyl)phenol] | 100 to 1000 nM
12 | Cc1cc(Cl)cc(O)c1-c1nc2nc(N3CCC(O)C3)cnc2n1C (single isomer, unassigned) [Example 85A] | < 100 nM
13 | Cc1cc(Cl)cc(O)c1-c1nc2nc(N3CCC(C)(O)C3)cnc2n1C (single isomer, unassigned) [Example 86A] | < 100 nM
14 | Cn1c(-c2ccc(C(F)(F)F)cc2O)nc2nc(NCCO)ccc21 [Example 1, 2-(5-((2-hydroxyethyl)amino)-1-methyl-1H-imidazo[4,5-b]pyridin-2-yl)-5-(trifluoromethyl)phenol] | 100 to 1000 nM
15 | CN1CCC[C@@H](Nc2ccc3c(n2)nc(-c2ccc(C(F)(F)F)cc2O)n3C)C1 [Example 2] | 100 to 1000 nM
16 | CNc1ccc2c(n1)nc(-c1c(C)cc(C(F)(F)F)cc1O)n2C [Example 3, 3-methyl-2-(1-methyl-5-(methylamino)-1H-imidazo[4,5-b]pyridin-2-yl)-5-(trifluoromethyl) phenol] | 100 to 1000 nM
17 | CNc1ccc2c(n1)nc(-c1ccc(C(F)(F)F)cc1O)n2C [Example 4, 2-(1-methyl-5-(methylamino)-1H-imidazo[4,5-b]pyridin-2-yl)-5-(trifluoromethyl)phenol] | 100 to 1000 nM
18 | Cn1c(-c2ccc(C(F)(F)F)cc2O)nc2nc(NCC(C)(C)O)ccc21 [Example 5, 2-(5-((2-hydroxy-2-methylpropyl)amino)-1-methyl-1H-imidazo[4,5-b]pyridin-2-yl)-5-(trifluoromethyl)phenol] | 100 to 1000 nM
19 | Cc1cc(C(F)(F)F)cc(O)c1-c1nc2nc(NCC(C)(C)O)ccc2n1C [Example 6, 2-(5-((2-hydroxy-2-methylpropyl)amino)-1-methyl-1H-imidazo[4,5-b]pyridin-2-yl)-3-methyl-5-(trifluoromethyl)phenol] | > 1000 nM
20 | Cn1c(-c2ccc(C(F)(F)F)cc2O)nc2nc(NC3COC3)ccc21 [Example 7, 2-(1-methyl-5-(oxetan-3-ylamino)-1H-imidazo[4,5-b]pyridin-2-yl)-5-(trifluoromethyl)phenol] | 100 to 1000 nM
21 | Cc1cc(C(F)(F)F)cc(O)c1-c1nc2nc(NC3CCN(C)C3)ccc2n1C(C)C (stereo not shown) [Example 10, 2-(1-isopropyl-5-((1-methylpyrrolidin-3-yl)amino)-1H-imidazo[4,5-b]pyridin-2-yl)-3-methyl-5-(trifluoromethyl)phenol] | < 100 nM
22 | Cc1cc(C(F)(F)F)cc(O)c1-c1nc2nc(N[C@@H]3CCN(C)C3)ccc2n1C(C)C [Example 10B, (R)-2-(1-isopropyl-5-((1-methylpyrrolidin-3-yl)amino)-1H-imidazo[4,5-b]pyridin-2-yl)-3-methyl-5-(trifluoromethyl)phenol] | < 100 nM
23 | CCn1c(-c2ccc(C(F)(F)F)cc2O)nc2nc(N[C@@H]3CCCN(C)C3)ccc21 [Example 12, (R)-2-(1-ethyl-5-((1-methylpiperidin-3-yl)amino)-1H-imidazo[4,5-b]pyridin-2-yl)-5-(trifluoromethyl)phenol] | 100 to 1000 nM
24 | CC(C)n1c(-c2ccc(C(F)(F)F)cc2O)nc2nc(N[C@@H]3CCCN(C)C3)ccc21 [Example 13, (R)-2-(1-isopropyl-5-((1-methylpiperidin-3-yl)amino)-1H-imidazo[4,5-b]pyridin-2-yl)-5-(trifluoromethyl)phenol] | 100 to 1000 nM
25 | CCn1c(-c2ccc(C(F)(F)F)cc2O)nc2nc(NC)ccc21 [Example 14, 2-(1-ethyl-5-(methylamino)-1H-imidazo[4,5-b]pyridin-2-yl)-5-(trifluoromethyl)phenol] | 100 to 1000 nM
26 | CNc1ccc2c(n1)nc(-c1c(C)cc(C(F)(F)F)cc1O)n2C(C)C [Example 15, 2-(1-isopropyl-5-(methylamino)-1H-imidazo[4,5-b]pyridin-2-yl)-3-methyl-5-(trifluoromethyl)phenol] | 100 to 1000 nM
27 | CCn1c(-c2ccc(C(F)(F)F)cc2O)nc2nc(NCCO)ccc21 [Example 16, 2-(1-ethyl-5-((2-hydroxyethyl)amino)-1H-imidazo[4,5-b]pyridin-2-yl)-5-(trifluoromethyl)phenol] | 100 to 1000 nM

Same assay, conditions: Homo sapiens, 3 h, Table 8 (formula II′/II vs formula III); MSU 200 μg/mL for 3 h; IL-1β release; read-out: IC50 Human monocyte-like cells MSU

Row | SMILES | IC50
28 | Cn1c(-c2ccc(C(F)(F)F)cc2O)nc2nc(NCCO)ccc21 [Example 1, 2-(5-((2-hydroxyethyl)amino)-1-methyl-1H-imidazo[4,5-b]pyridin-2-yl)-5-(trifluoromethyl)phenol] | 100 to 500 nM
29 | CN1CCC[C@@H](Nc2ccc3c(n2)nc(-c2ccc(C(F)(F)F)cc2O)n3C)C1 [Example 2] | 100 to 500 nM

Same assay, conditions: Table 7; PMA-differentiated, LPS-primed cells; MSU 200 μg/mL for 3 h; IL-1β release; read-out: IC50 Human monocyte-like cells MSU

Row | SMILES | IC50
30 | Cc1cc(Cl)cc(O)c1-c1nc2nc(N3CC[C@@H]4CCN(C)C[C@@H]43)cnc2n1C (relative stereo) [Example 77B, 5-chloro-3-methyl-2-[1-methyl-5-[rel-(3aS,7aR)-6-methyl-3,3a,4,5,7,7a-hexahydro-2H-pyrrolo[2,3-c]pyridin-1-yl]imidazo[4,5-b]pyrazin-2-yl]phenol] | < 100 nM
31 | Cc1cc(C(F)(F)F)cc(O)c1-c1nc2nc(NC3CCN(C)C3)ccc2n1C (single isomer, unassigned) [Example 18B, 3-methyl-2-(1-methyl-5-((1-methylpyrrolidin-3-yl)amino)-1H-imidazo[4,5-b]pyridin-2-yl)-5-(trifluoromethyl)phenol] | 100 to 1000 nM
32 | Cn1c(-c2ccc(C(F)(F)F)cc2O)nc2nc(O[C@H]3CC[C@H](O)C3)ccc21 (single isomer, unassigned) [Example 37B, trans-2-(5-((3-hydroxycyclopentyl)oxy)-1-methyl-1H-imidazo[4,5-b]pyridin-2-yl)-5-(trifluoromethyl)phenol] | 100 to 1000 nM
33 | Cc1cc(Cl)cc(O)c1-c1nc2nc(N3CCC(O)C3)cnc2n1C (single isomer, unassigned) [Example 85B] | < 100 nM
34 | Cc1cc(Cl)cc(O)c1-c1nc2nc(N3CCC(C)(O)C3)cnc2n1C (single isomer, unassigned) [Example 86B] | < 100 nM

Reference: patent publication US20240101563A1, “NOVEL COMPOUNDS” (AC Immune SA, priority 2022, published 2024)
